Patent US8530648B2, “Diaza-spiro[5.5]undecanes” (Novartis AG, priority 2009, dated 2013)

Assays:
hOx1R [1] = biological target: T1, hOx1R (Homo sapiens (Human), UniProt O43613); assay: Calcium accumulation in cells (FLIPR), hOx1R; format: cell-based; settings: inhibition of orexin A induced calcium accumulation, Cheng and Prusoff correction
In short: (§1)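 Cells expressing human orexin 1 or 2 receptor, serum-deprived overnight, loaded with Fluo-4-AM (2 μM) plus 0.1 mM probenecid, pH 7.4 HEPES buffer with 1% BSA.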

hOx2R [2] = biological target: T2, hOx2R (Homo sapiens (Human), UniProt O43614); assay: Calcium accumulation in cells (FLIPR), hOx2R; format: cell-based; settings: inhibition of orexin A induced calcium accumulation, Cheng and Prusoff correction
In short: as §1

hOx1R [3] = biological target: T1, hOx1R; assay: Radioligand binding assay, [125I]orexin A, hOx1R; settings: radioligand [125I]orexin A, competition
Protocol: (§2) For crude cell membrane preparations, cells (CHO, Chinese hamster ovary or HEK, human embryonic kidney) expressing human orexin 1 or human orexin 2 receptors, were washed with HEPES (10 mM, pH 7.5), scraped off the culture plates with the same buffer, and centrifuged at 4° C. for 5 min at 2500×g. The cell pellet was either stored at −80° C. or used directly. Before the experiments, cell membranes were re-suspended in binding assay buffer (10 mM HEPES, 0.5% (w/v) bovine serum albumin, pH 7.5) by homogenisation with a Polytron homogeniser at 50 Hz for 20 s. Cell membranes were also used as made available by commercial providers.
(§3) In initial saturation experiments (to calculate Bmax), cell homogenates (150 μl) were incubated with 25-300 pM of the radioligand ([^125I]orexin A, 50 μl), 8 concentrations in triplicates in the presence or absence Orexin A (1 μM, 50 μl) to define non specific binding. Bound radioactivity was measured, and data were analysed with the program XLFIT or Graphpad Prism. Protein concentration was determined according to the Bradford/BioRad Protein Assay Kit.
(§4) In competition experiments, cell homogenates (150 μl) were incubated in assay buffer (10 mM HEPES, pH 7.5, 0.5% (w/v) bovine serum albumin, 5 mM MgCl2, 1 mM CaCl2, and tween 0.05%) for 1 h at room temperature with about 100 pM of the radioligand ([^125I]orexin A, 2100 Ci/mmole, 50 μl), and with various concentrations of compounds of the invention (50 μl) in triplicates; non-specific binding was determined in the presence of Orexin A (1 μM). Reactions were terminated by vacuum filtration, 3 washes of ice cold wash buffer (Tris-HCl pH 7.4/10 mM, with NaCl 154 mM).

hOx2R [4] = biological target: T2, hOx2R; assay: Radioligand binding assay, [125I]orexin A, hOx2R; settings: radioligand [125I]orexin A, competition
Protocol: as §2, §3, §4

C75/Bl6 mice [5] = assay: Beam Braking Motor Activity Behavior (BBM); format: in vivo; settings: 100 mg/kg p.o.; for BBM: induced inactivity vs controls: in the first 3 hours
Protocol: Beam Braking Motor Activity Behavior (BBM)
In the morning (9:00 h) of experimental day 1, the animals (C75/Bl6 mice; Janvier, France) are singly placed into home cages (Type 3, only containing sawdust, as well as food and water ad libitum). The cages are put into frames equipped with infrared beams to record the activity/inactivity of the mice (Moti 4.25, TSE Systems, Germany). The first 1.5 days are used for habituation (see Figure). Five minutes before lights-off of the second day, the animals (n=6/groups) are orally treated with vehicle, the compounds or a positive control (e.g. almorexant 100 mg/kg). Then, the animals stay in the setups for the following lights-off period and activity monitored.
The data are expressed as means±SEM (standard error of the means) of these difference scores for each hour as well as for the first four hours after administration, the time period which is most sensible to the effects of sleep-promoting compounds. Statistical analysis of the data is done with Systat 11 software. Since the data are normally distributed, analysis of variance (ANOVA) with treatment as between subject factor and the Dunnett test for post-hoc pairwise comparison were used. Furthermore, Student t-tests are used for single pair wise comparisons.

C75/Bl6 mice [6] = assay: Sleep Electroencephalography (Sleep EEG); format: in vivo; settings: 100 mg/kg p.o.
Protocol: Sleep Electroencephalography (Sleep EEG):
The sleep pattern of tethered mice (C75/Bl6 mice; Janvier, France), chronically implanted with cortical EEG electrodes and an EMG electrode (neck muscle), is scored using the rodent scoring module of Somnologica software. Activity is monitored with an infrared sensor placed in the top of the cage and video recordings are collected with a day/night camera and infrared light during the dark phase (12 hours, lights off at 15:00). Mice are repeatedly acclimated to the recording setup and for a minimum of 3 days before each experiment. All treatments occur 5-10 min before lights off. On Day 1 mice are handled and the oral gavage introduced without application, on Day 2 vehicle is applied, on Day 3 compound is applied, and on Day 4 vehicle is applied. 22 hour recordings are scored in 10 s epochs and the total minutes per hour in Active wake (wake with locomotion), Quiet wake, and sleep are determined. Significance (p<0.05) is tested between vehicle and compound with Systat12 using the Restricted Maximum Likelihood test followed by post-hoc analysis using Fisher's Least Significant Differences test when either treatment or the interaction between treatment and hour had p<0.05.

T1 sequence (O43613 whole entry): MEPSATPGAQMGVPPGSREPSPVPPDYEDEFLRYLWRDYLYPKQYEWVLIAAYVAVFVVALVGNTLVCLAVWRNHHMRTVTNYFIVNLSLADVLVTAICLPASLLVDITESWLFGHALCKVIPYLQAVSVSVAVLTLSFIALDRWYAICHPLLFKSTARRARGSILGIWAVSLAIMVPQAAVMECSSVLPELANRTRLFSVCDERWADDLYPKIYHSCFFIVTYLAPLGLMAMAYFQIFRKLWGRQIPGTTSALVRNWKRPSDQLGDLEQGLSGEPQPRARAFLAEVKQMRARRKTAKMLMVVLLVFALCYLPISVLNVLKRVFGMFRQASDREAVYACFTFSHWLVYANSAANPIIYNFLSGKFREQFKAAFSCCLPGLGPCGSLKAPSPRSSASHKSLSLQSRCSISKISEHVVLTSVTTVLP
T2 sequence (O43614 whole entry): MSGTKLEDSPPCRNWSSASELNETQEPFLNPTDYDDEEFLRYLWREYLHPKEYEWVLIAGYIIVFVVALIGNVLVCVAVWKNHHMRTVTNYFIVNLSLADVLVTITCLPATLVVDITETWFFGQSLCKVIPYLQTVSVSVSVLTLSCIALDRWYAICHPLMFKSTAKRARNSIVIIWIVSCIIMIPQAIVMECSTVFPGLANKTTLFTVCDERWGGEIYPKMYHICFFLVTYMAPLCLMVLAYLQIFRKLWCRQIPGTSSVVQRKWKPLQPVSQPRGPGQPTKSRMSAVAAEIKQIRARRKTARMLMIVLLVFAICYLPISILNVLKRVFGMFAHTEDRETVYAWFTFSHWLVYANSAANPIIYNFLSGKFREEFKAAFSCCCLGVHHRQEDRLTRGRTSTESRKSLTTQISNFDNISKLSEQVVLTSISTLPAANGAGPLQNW

SMILES | Ki (hOx1R [1]) | Ki (hOx2R [2]) | Kd (hOx1R [3]) | Kd (hOx2R [4]) | BBM: duration of induced inactivity (C75/Bl6 mice [5]) | BBM: induced inactivity vs controls (C75/Bl6 mice [5]) | Sleep EEG: duration of reduced active wake and increased sleep (C75/Bl6 mice [6]) | Sleep EEG: effect on quiet wake (C75/Bl6 mice [6]) | Sleep EEG: reduction of active wake and increase of sleep vs controls (C75/Bl6 mice [6])
O=C1N(Cc2c[nH]c3ccccc23)CCCC12CCN(c1cnc3ccccc3n1)CC2 [Example 1, 2-((1H-indol-3-yl)methyl)-9-(quinoxalin-2-yl)-2,9-diazaspiro[5.5]undecan-1-one] | 314 nM | 30 nM | 374 nM | 42 nM | 6 to 7 h | 15-22 minutes/hour | up to 7 hours | minimal effects | 7-16 minutes/hour
O=C1N(Cc2cccc3[nH]ccc23)CCCC12CCN(c1cnc3ccccc3n1)CC2 [Example 3, 2-((1H-indol-4-yl)methyl)-9-(quinoxalin-2-yl)-2,9-diazaspiro[5.5]undecan-1-one] | 474 nM | 63 nM | 630 nM | 130 nM | – | – | – | – | –
O=C1N(Cc2cccc3c2OCCO3)CCCC12CCN(c1cnc3ccccc3n1)CC2 [Example 4, 2-((2,3-dihydrobenzo[b][1,4]dioxin-5-yl)methyl)-9-(quinoxalin-2-yl)-2,9-diazaspiro[5.5]undecan-1-one] | 1360 nM | 46 nM | 2060 nM | 121 nM | – | – | – | – | –
O=C1N(Cc2ccccc2)CCCC12CCN(c1cnc3ccccc3n1)CC2 [Example 6, 2-benzyl-9-(quinoxalin-2-yl)-2,9-diazaspiro[5.5]undecan-1-one] | 1480 nM | 371 nM | 1310 nM | 300 nM | – | – | – | – | –
O=C1N(Cc2cccc3c2OCO3)CCCC12CCN(c1cnc3ccccc3n1)CC2 [Example 9, 2-(benzo[d][1,3]dioxol-4-ylmethyl)-9-(quinoxalin-2-yl)-2,9-diazaspiro[5.5]undecan-1-one] | 904 nM | 35 nM | 2350 nM | 413 nM | – | – | – | – | –
Cc1cc2c(CN3CCCC4(CCN(c5cnc6ccccc6n5)CC4)C3=O)cccc2[nH]1 [Example 13, 2-((2-methyl-1H-indol-4-yl)methyl)-9-(quinoxalin-2-yl)-2,9-diazaspiro[5.5]undecan-1-one] | 365 nM | 35 nM | 776 nM | 62 nM | – | – | – | – | –
Cc1cccc(CN2CCCC3(CCN(c4cnc5ccccc5n4)CC3)C2=O)c1 [Example 15, 2-(3-methylbenzyl)-9-(quinoxalin-2-yl)-2,9-diazaspiro[5.5]undecan-1-one] | 1380 nM | 155 nM | 1400 nM | 288 nM | – | – | – | – | –
CNC(=O)[C@@H](c1ccccc1)N1CCc2cc(OC)c(OC)cc2[C@@H]1CCc1ccc(C(F)(F)F)cc1 [almorexant, reference compound] | – | – | – | – | 5 to 7 h | 18-21 minutes/hour | 5 to 6 h | without noticeable effect | 9-16 minutes/hour
O=C1N(Cc2cccc(-c3cccnc3)c2)CCCC12CCN(c1cnc3ccccc3n1)CC2 [Example 5, 2-(3-(pyridin-3-yl)benzyl)-9-(quinoxalin-2-yl)-2,9-diazaspiro[5.5]undecan-1-one] | 83 nM | 22 nM | 426 nM | 98 nM | – | – | – | – | –

Second part, led by results:

Ki (hOx1R [1]) | Ki (hOx2R [2]) | Kd (hOx1R [3]) | Kd (hOx2R [4]) | SMILES | BBM: duration of induced inactivity (C75/Bl6 mice [5]) | BBM: induced inactivity vs controls (C75/Bl6 mice [5]) | Sleep EEG: duration of reduced active wake and increased sleep (C75/Bl6 mice [6]) | Sleep EEG: effect on quiet wake (C75/Bl6 mice [6]) | Sleep EEG: reduction of active wake and increase of sleep vs controls (C75/Bl6 mice [6])
657 nM | 11 nM | 1410 nM | 96 nM | O=C1CCCC2(CCN(c3nc4cc(Cl)ccc4o3)CC2)N1Cc1cccc2[nH]ccc12 [Example 136, 1-((1H-indol-4-yl)methyl)-9-(5-chlorobenzo[d]oxazol-2-yl)-1,9-diazaspiro[5.5]undecan-2-one] | – | – | – | – | –
2740 nM | 280 nM | 4480 nM | 1090 nM | O=C1N(Cc2ccccc2C(F)(F)F)CCCC12CCN(c1cnc3ccccc3n1)CC2 [Example 23, 9-(quinoxalin-2-yl)-2-(2-(trifluoromethyl)benzyl)-2,9-diazaspiro[5.5]undecan-1-one] | – | – | – | – | –
740 nM | 84 nM | 702 nM | 169 nM | O=C1N(Cc2cccc(Cl)c2)CCCC12CCN(c1cnc3ccccc3n1)CC2 [Example 27, 2-(3-chlorobenzyl)-9-(quinoxalin-2-yl)-2,9-diazaspiro[5.5]undecan-1-one] | – | – | – | – | –
1560 nM | 88 nM | 4320 nM | 181 nM | Cc1onc(-c2ccccc2)c1CN1CCCC2(CCN(c3cnc4ccccc4n3)CC2)C1=O [Example 34, 2-((5-methyl-3-phenylisoxazol-4-yl)methyl)-9-(quinoxalin-2-yl)-2,9-diazaspiro[5.5]undecan-1-one] | – | – | – | – | –
